Results as given in ChEMBL document CHEMBL1145537, “Combination of tigecycline and N-acetylcysteine reduces biofilm-embedded bacteria on vascular catheters” (Antimicrob Agents Chemother, 2007).
Activity calls are given as the source filed them.

Legend:
Assay type in all cases: functional, organism-based
[1] = test system: Staphylococcus aureus; experiment: Antimicrobial activity against catheter-associated biofilm of methicillin-resistant Staphylococcus aureus
[2] = test system: Staphylococcus epidermidis; experiment: Antimicrobial activity against catheter-associated biofilm of methicillin-resistant Staphylococcus epidermidis
[3] = test system: Klebsiella pneumoniae; experiment: Antimicrobial activity against catheter-associated biofilm of Klebsiella pneumoniae
[4] = test system: Staphylococcus aureus; experiment: Antimicrobial activity against catheter-associated biofilm of methicillin-resistant Staphylococcus aureus assessed as reduction of CFU
[5] = test system: Staphylococcus aureus; experiment: Antimicrobial activity against catheter-associated biofilm of methicillin-sensitive Staphylococcus aureus assessed as reduction of CFU
[6] = test system: Staphylococcus epidermidis; experiment: Antimicrobial activity against catheter-associated biofilm of methicillin-resistant Staphylococcus epidermidis assessed as reduction of CFU
[7] = test system: Klebsiella pneumoniae; experiment: Antimicrobial activity against catheter-associated biofilm of Klebsiella pneumoniae assessed as reduction of CFU
[8] = test system: Acinetobacter baumannii; experiment: Antimicrobial activity against catheter-associated biofilm of Acinetobacter baumannii assessed as reduction of CFU

Measured: Activity

CC(=O)N[C@@H](CS)C(=O)O
active: [1] | [2] | [3]

CN(C)c1cc(NC(=O)CNC(C)(C)C)c(O)c2c1C[C@H]1C[C@H]3[C@H](N(C)C)C(O)=C(C(N)=O)C(=O)[C@@]3(O)C(O)=C1C2=O
active: [4] | [5] | [6] | [7] | [8]
